According to ChEMBL document CHEMBL5223127, “Fragment-based discovery of novel phenyltriazolyl derivatives as allosteric type-I1/2 ALK inhibitors with promising antitumor effects” (Bioorg Med Chem Lett, 2022):

Assays:
KARPAS-299 = assay: Antiproliferative activity against human KARPAS-299 cells by MTT assay
NCI-H2228 [1] = assay: Antiproliferative activity against human NCI-H2228 cells by MTT assay
A549 = assay: cells; settings: Homo sapiens
Description: Antiproliferative activity against human A549 cells by MTT assay

[2] = target: ALK tyrosine kinase receptor (Homo sapiens, UniProt Q9UM73); assay: Inhibition of wild type ALK (unknown origin)
ALK tyrosine kinase receptor (Homo sapiens, UniProt Q9UM73), sequence (Q9UM73 whole entry): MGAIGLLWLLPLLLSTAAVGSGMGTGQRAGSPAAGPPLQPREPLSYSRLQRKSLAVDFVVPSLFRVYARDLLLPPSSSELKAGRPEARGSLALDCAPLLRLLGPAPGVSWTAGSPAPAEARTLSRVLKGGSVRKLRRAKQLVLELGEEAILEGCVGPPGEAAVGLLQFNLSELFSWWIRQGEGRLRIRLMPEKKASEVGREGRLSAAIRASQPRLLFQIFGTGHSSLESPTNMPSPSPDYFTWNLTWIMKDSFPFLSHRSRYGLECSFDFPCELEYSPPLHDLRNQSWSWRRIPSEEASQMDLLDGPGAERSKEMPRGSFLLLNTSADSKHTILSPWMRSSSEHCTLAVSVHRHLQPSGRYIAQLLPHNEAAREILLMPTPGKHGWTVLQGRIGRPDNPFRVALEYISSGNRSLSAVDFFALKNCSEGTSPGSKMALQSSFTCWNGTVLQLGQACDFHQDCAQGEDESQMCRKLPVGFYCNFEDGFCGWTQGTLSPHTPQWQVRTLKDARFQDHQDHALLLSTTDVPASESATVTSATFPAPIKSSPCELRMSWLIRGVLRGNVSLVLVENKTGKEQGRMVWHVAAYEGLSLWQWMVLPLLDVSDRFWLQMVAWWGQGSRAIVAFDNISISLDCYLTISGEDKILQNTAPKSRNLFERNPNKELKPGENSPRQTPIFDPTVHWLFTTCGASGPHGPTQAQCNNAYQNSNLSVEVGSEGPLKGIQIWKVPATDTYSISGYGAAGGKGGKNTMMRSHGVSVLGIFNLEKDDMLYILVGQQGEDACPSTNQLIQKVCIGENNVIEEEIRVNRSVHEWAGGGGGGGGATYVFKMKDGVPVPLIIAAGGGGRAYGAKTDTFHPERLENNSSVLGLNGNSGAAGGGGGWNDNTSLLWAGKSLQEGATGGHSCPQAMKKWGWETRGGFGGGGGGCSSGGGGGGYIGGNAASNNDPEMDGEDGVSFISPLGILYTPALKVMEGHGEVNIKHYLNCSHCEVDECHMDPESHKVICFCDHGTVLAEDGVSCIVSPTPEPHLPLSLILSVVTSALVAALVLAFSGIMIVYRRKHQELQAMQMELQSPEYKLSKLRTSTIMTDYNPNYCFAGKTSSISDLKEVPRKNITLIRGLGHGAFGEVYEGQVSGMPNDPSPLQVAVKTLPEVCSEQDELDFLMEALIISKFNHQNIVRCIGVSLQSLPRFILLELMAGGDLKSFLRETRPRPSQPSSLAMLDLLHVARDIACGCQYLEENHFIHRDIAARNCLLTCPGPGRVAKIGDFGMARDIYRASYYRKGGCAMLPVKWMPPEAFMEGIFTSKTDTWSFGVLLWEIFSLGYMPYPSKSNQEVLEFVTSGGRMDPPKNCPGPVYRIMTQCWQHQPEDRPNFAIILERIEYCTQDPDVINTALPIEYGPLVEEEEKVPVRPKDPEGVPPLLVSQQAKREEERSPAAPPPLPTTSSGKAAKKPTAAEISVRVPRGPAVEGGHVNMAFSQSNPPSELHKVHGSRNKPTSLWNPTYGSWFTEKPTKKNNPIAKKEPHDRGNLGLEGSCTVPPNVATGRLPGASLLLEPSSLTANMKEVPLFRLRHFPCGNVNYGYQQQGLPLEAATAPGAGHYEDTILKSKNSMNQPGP

[3] = target: ALK tyrosine kinase receptor (Homo sapiens, UniProt Q9UM73, L1196M); assay: Inhibition of ALK L1196M mutant (unknown origin)
ALK tyrosine kinase receptor (Homo sapiens, UniProt Q9UM73, L1196M), sequence (Q9UM73 19-1620 L1196M limits assumed): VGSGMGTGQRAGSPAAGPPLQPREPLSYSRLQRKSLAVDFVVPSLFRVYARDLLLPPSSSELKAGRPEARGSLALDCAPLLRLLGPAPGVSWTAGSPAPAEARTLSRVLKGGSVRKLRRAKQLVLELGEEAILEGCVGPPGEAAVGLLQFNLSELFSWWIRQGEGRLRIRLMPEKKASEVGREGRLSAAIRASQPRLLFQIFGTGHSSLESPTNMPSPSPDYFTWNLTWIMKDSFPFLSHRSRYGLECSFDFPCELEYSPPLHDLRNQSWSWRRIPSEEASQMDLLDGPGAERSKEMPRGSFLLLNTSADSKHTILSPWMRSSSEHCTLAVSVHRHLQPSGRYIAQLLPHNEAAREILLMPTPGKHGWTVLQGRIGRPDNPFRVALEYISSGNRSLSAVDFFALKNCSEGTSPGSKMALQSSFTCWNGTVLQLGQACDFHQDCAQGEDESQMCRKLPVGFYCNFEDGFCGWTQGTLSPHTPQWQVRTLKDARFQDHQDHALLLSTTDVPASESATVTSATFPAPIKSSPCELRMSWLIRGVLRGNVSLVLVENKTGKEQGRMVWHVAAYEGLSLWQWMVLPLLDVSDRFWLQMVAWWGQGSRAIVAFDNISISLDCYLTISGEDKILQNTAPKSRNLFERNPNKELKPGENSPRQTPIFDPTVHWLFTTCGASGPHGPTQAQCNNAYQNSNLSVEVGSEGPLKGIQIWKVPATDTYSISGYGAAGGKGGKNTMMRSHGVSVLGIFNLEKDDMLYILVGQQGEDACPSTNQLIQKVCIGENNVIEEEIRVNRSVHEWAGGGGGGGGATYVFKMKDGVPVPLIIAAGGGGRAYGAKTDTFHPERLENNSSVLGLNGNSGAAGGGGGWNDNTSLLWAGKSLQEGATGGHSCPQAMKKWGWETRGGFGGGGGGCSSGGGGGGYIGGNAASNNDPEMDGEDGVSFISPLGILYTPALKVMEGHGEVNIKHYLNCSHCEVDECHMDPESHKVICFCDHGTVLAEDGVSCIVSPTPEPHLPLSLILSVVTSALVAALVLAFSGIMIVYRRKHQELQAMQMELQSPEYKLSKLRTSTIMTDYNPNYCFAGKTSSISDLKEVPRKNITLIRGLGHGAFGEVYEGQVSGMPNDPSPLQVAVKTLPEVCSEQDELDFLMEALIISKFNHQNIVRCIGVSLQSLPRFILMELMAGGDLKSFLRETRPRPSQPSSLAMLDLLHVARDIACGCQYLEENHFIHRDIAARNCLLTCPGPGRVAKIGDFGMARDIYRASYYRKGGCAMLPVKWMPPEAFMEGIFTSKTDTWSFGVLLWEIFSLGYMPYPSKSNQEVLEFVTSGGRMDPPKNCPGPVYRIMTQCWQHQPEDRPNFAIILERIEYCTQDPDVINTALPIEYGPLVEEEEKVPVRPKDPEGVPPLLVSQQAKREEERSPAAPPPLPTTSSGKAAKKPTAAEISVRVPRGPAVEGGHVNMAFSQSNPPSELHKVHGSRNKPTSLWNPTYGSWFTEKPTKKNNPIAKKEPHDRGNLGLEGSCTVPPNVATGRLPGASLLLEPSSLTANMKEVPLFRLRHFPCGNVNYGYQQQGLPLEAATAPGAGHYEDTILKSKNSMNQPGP

[4] = target: Epidermal growth factor receptor (Homo sapiens, UniProt P00533); assay: Inhibition of EGFR (unknown origin)
Epidermal growth factor receptor, sequence (P00533 whole entry): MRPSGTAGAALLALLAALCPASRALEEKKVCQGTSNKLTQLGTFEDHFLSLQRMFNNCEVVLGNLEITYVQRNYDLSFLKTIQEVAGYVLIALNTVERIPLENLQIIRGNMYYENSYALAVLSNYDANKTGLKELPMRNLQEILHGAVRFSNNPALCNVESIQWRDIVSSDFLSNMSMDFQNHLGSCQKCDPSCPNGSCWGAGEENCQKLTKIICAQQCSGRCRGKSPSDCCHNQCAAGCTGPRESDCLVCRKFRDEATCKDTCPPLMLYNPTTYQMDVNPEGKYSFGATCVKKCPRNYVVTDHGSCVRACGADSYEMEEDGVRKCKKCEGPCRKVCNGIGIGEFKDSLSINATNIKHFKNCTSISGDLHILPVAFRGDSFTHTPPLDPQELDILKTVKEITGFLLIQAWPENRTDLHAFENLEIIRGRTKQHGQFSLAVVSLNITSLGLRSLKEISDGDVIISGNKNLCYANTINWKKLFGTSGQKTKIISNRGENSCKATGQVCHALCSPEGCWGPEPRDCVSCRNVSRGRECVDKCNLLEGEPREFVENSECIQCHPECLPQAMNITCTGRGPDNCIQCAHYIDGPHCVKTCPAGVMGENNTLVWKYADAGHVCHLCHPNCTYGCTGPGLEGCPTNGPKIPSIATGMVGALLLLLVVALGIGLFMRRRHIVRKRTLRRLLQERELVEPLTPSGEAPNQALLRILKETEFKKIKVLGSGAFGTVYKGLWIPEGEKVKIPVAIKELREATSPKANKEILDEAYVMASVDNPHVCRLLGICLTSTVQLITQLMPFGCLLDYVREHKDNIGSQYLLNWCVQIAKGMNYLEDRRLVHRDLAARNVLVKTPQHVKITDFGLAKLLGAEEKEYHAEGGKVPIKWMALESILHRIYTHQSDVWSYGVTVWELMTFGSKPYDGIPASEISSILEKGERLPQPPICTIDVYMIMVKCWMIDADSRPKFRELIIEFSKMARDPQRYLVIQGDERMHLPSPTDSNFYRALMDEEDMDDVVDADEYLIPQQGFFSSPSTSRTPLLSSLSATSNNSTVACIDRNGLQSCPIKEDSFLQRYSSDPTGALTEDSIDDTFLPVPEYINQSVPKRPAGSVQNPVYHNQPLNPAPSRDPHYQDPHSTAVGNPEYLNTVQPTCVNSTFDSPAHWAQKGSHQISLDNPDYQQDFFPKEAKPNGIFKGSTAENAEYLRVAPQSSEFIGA

[5] = target: Hepatocyte growth factor receptor (Homo sapiens, UniProt P08581); assay: Inhibition of c-MET (unknown origin)
NCI-H2228 [6] = assay: Induction of apoptosis in human NCI-H2228 cells assessed as nuclear contraction incubated for 24 hrs by Hoechst 33342 staining based fluorescence microscopy assay; format: functional, cell-based; settings: dose 25-100 nM
NCI-H2228 [7] = assay: Induction of apoptosis in human NCI-H2228 cells assessed as nuclear fragmentation incubated for 24 hrs by Hoechst 33342 staining based fluorescence microscopy assay; format: functional, cell-based; settings: dose 25-100 nM
NCI-H2228 [8] = assay: Inhibition of colony formation in human NCI-H2228 cells incubated for 24 hrs; format: functional, cell-based; settings: dose 0.25-1 µM
NCI-H2228 [9] = assay: Inhibition of colony formation in human NCI-H2228 cells at 1 uM incubated for 24 hrs; format: functional
NCI-H2228 [10] = assay: Antimigratory activity against human NCI-H2228 cells incubated for 48 hrs by wound healing assay; format: functional, cell-based; settings: dose 12.5-50 nM

## CC1CCN(c2ccc(NCc3cn(-c4cccc(NC(=O)c5cc(F)cc(F)c5)c4)nn3)cc2C(=O)N(C)C)CC1
KARPAS-299
  IC50: 0.191 µM
NCI-H2228 [1]
  IC50: 0.881 µM
A549
  IC50: 5.79 µM

## CNCc1cn(-c2cccc(NC(=O)c3cc(F)cc(F)c3)c2)nn1
[2]
  IC50: 0.27 µM

## O=C(Nc1cccc(-n2cc(CNc3ccc(NCCO)c(C(=O)N4CCCCC4)c3)nn2)c1)c1cc(F)cc(F)c1
KARPAS-299
  IC50: 0.602 µM
NCI-H2228 [1]
  IC50: 2.52 µM
A549
  IC50: > 10 µM

## CC1CCN(c2ccc(NCc3cn(-c4cccc(NC(=O)c5cc(F)cc(F)c5)c4)nn3)cc2C(=O)N2CCCCC2)CC1
KARPAS-299
  IC50: 0.24 µM
NCI-H2228 [1]
  IC50: 1.03 µM
A549
  IC50: > 10 µM

## CN1CCN(c2ccc(NCc3cn(-c4cccc(NC(=O)c5cc(F)cc(F)c5)c4)nn3)cc2)CC1
[2]
  IC50: 0.055 µM

## O=C(Nc1cccc(-n2cc(CNc3ccc(N4CCCCC4)c(C(=O)N4CCCCC4)c3)nn2)c1)c1cc(F)cc(F)c1
KARPAS-299
  IC50: 0.272 µM
NCI-H2228 [1]
  IC50: 1.02 µM
A549
  IC50: > 10 µM

## CN1CCN(c2ccc(NCc3cn(-c4cccc(NC(=O)c5cc(F)cc(F)c5)c4)nn3)cc2C(=O)N2CCCCC2)CC1
KARPAS-299
  IC50: 0.091 µM
NCI-H2228 [1]
  IC50: 0.387 µM
A549
  IC50: > 10 µM

## CN(C)C(=O)c1cc(NCc2cn(-c3cccc(NC(=O)c4cc(F)cc(F)c4)c3)nn2)ccc1N1CCC(O)CC1
KARPAS-299
  IC50: 0.062 µM
NCI-H2228 [1]
  IC50: 0.198 µM
A549
  IC50: 2.05 µM

## CN1CCN(c2ccc(NCc3cn(-c4cccc(NC(=O)c5cc(F)cc(F)c5)c4)nn3)cc2C(=O)N(C)C)CC1
KARPAS-299
  IC50: 0.055 µM
NCI-H2228 [1]
  IC50: 0.169 µM
A549
  IC50: 3.75 µM

## CN(C)C(=O)c1cc(NCc2cn(-c3cccc(NC(=O)c4cc(F)cc(F)c4)c3)nn2)ccc1NCCO
KARPAS-299
  IC50: 0.492 µM
NCI-H2228 [1]
  IC50: 1.79 µM
A549
  IC50: 7.99 µM

## CC1CCN(c2ccc(NCc3cn(-c4cccc(NC(=O)c5cc(F)cc(F)c5)c4)nn3)cc2C(=O)N2CCOCC2)CC1
KARPAS-299
  IC50: 2.31 µM
NCI-H2228 [1]
  IC50: > 10 µM
A549
  IC50: > 10 µM

## CN1CCN(c2ccc(NCc3cn(-c4cccc(NC(=O)c5cc(F)cc(F)c5)c4)nn3)cc2C(=O)N2CCOCC2)CC1
KARPAS-299
  IC50: 0.452 µM
NCI-H2228 [1]
  IC50: 1.98 µM
A549
  IC50: > 10 µM

## CC1CCN(c2ccc(NCc3cn(-c4cccc(NC(=O)c5cc(F)cc(F)c5)c4)nn3)cc2C(=O)N2CCCC2)CC1
KARPAS-299
  IC50: 0.249 µM
NCI-H2228 [1]
  IC50: 0.995 µM
A549
  IC50: > 10 µM

## O=C(Nc1cccc(-n2cc(CNc3ccc(N4CC(O)C4)c(C(=O)N4CCOCC4)c3)nn2)c1)c1cc(F)cc(F)c1
KARPAS-299
  IC50: 0.594 µM
NCI-H2228 [1]
  IC50: 1.61 µM
A549
  IC50: > 10 µM

## O=C(Nc1cccc(-n2cc(CNc3ccc(N4CCC(O)CC4)c(C(=O)N4CCCC4)c3)nn2)c1)c1cc(F)cc(F)c1
KARPAS-299
  IC50: 0.051 µM
NCI-H2228 [1]
  IC50: 0.175 µM
[2]
  IC50: 0.0037 µM
[3]
  IC50: 0.0068 µM
[4]
  IC50: > 1 µM
[5]
  IC50: > 1 µM
NCI-H2228 [6]
  Activity: Dose-Dependent Effect
NCI-H2228 [7]
  Activity: Dose-Dependent Effect
NCI-H2228 [8]
  inhibition: Dose-Dependent Effect
NCI-H2228 [9]
  inhibition at 1 µM: 100%
NCI-H2228 [10]
  Activity: Dose-Dependent Effect
A549
  IC50: > 10 µM

## CN(C)C(=O)c1cc(NCc2cn(-c3cccc(NC(=O)c4cc(F)cc(F)c4)c3)nn2)ccc1N(C)C
KARPAS-299
  IC50: 0.356 µM
NCI-H2228 [1]
  IC50: 1.61 µM
A549
  IC50: 4.93 µM

## O=C(Nc1cccc(-n2cc(CNc3ccc(NCCO)c(C(=O)N4CCOCC4)c3)nn2)c1)c1cc(F)cc(F)c1
KARPAS-299
  IC50: 1.54 µM
NCI-H2228 [1]
  IC50: 6.94 µM
A549
  IC50: > 10 µM

## CN(C)c1ccc(NCc2cn(-c3cccc(NC(=O)c4cc(F)cc(F)c4)c3)nn2)cc1C(=O)N1CCCC1
KARPAS-299
  IC50: 0.511 µM
NCI-H2228 [1]
  IC50: 2.69 µM
A549
  IC50: > 10 µM

## CN(C)c1ccc(NCc2cn(-c3cccc(NC(=O)c4cc(F)cc(F)c4)c3)nn2)cc1C(=O)N1CCCCC1
KARPAS-299
  IC50: 0.589 µM
NCI-H2228 [1]
  IC50: 2.8 µM
A549
  IC50: > 10 µM

## CN1CCN(c2ccc(NCc3cn(-c4cccc(NC(=O)c5cc(F)cc(F)c5)c4)nn3)cc2C(=O)N2CCCC2)CC1
KARPAS-299
  IC50: 0.079 µM
NCI-H2228 [1]
  IC50: 0.362 µM
A549
  IC50: > 10 µM

## CN(C)c1ccc(NCc2cn(-c3cccc(NC(=O)c4cc(F)cc(F)c4)c3)nn2)cc1C(=O)N1CCOCC1
KARPAS-299
  IC50: 1.76 µM
NCI-H2228 [1]
  IC50: 7.89 µM
A549
  IC50: > 10 µM

## O=C(Nc1cccc(-n2cc(CNc3ccc(N4CCCCC4)c(C(=O)N4CCOCC4)c3)nn2)c1)c1cc(F)cc(F)c1
KARPAS-299
  IC50: 1.91 µM
NCI-H2228 [1]
  IC50: 7.52 µM
A549
  IC50: > 10 µM

## O=C(Nc1cccc(-n2cc(CNc3ccc(N4CCCCC4)c(C(=O)N4CCCC4)c3)nn2)c1)c1cc(F)cc(F)c1
KARPAS-299
  IC50: 0.232 µM
NCI-H2228 [1]
  IC50: 0.991 µM
A549
  IC50: > 10 µM

## O=C(Nc1cccc(-n2cc(CNc3ccc(N4CC(O)C4)c(C(=O)N4CCCCC4)c3)nn2)c1)c1cc(F)cc(F)c1
KARPAS-299
  IC50: 0.055 µM
NCI-H2228 [1]
  IC50: 0.193 µM
[2]
  IC50: 0.0058 µM
[3]
  IC50: 0.0129 µM
[4]
  IC50: > 1 µM
[5]
  IC50: 0.796 µM
A549
  IC50: > 10 µM

## O=C(Nc1cccc(-n2cc(CNc3ccc(N4CCC(O)CC4)c(C(=O)N4CCOCC4)c3)nn2)c1)c1cc(F)cc(F)c1
KARPAS-299
  IC50: 0.425 µM
NCI-H2228 [1]
  IC50: 1.86 µM
A549
  IC50: > 10 µM

## CN(C)C(=O)c1cc(NCc2cn(-c3cccc(NC(=O)c4cc(F)cc(F)c4)c3)nn2)ccc1N1CCCCC1
KARPAS-299
  IC50: 0.157 µM
NCI-H2228 [1]
  IC50: 0.76 µM
A549
  IC50: 4.12 µM

## O=C(Nc1cccc(-n2cc(CNc3ccc(N4CCC(O)CC4)c(C(=O)N4CCCCC4)c3)nn2)c1)c1cc(F)cc(F)c1
KARPAS-299
  IC50: 0.057 µM
NCI-H2228 [1]
  IC50: 0.192 µM
[2]
  IC50: 0.0086 µM
[3]
  IC50: 0.0176 µM
[4]
  IC50: > 1 µM
[5]
  IC50: > 1 µM
A549
  IC50: > 10 µM
